Source: patent publication US20210380595A1 (ARAXES PHARMA LLC, priority 2018, published 2021)

These compounds were tested against T1, KRAS G12C 1-169, his-tagged protein, GDP-loaded (Homo sapiens, UniProt P01116, G12C) (assay: Biochemical assay: covalent modification of KRAS G12C measured by mass spectrometry (RapidFire/TOF or Q-Exactive)). Details: tested at 32 μM.
T1 construct: KRAS G12C 1-169, his-tagged protein, GDP-loaded
Format: binding
Protocol: Test compounds were prepared as 10 mM stock solutions in DMSO (Fisher cat. #BP-231-100). KRAS G12C 1-169, his-tagged protein, GDP-loaded is diluted to 2 μM or 0.5 μM in buffer (20 mM Hepes, 150 mM NaCl, 1 mM MgCl2). Compounds were tested for activity as follows:
Compounds were diluted to 50× final test concentration in DMSO in 96-well storage plates. Compound stock solutions were vortexed before use and observed cwerefully for any sign of precipitation. Dilutions were as follow: • For 32 μM final compound concentration, compounds were diluted to 1600 μM (3 μL 10 mM compound stock +15.75 μL DMSO and mixed well by pipetting. • For 8 μM final compound concentration, compounds were diluted to 400 μM (2 μL 10 mM compound stock +48 μL DMSO) and mixed well by pipetting. 49 μL of the stock protein solution was added to each well of a 96-well PCR plate (Fisher cat#1423027). 1 μl of the diluted 50× compounds were added to appropriate wells in the PCR plate using 12-channel pipettor. Reactions were mixed carefully and thoroughly by pipetting up/down with a 200 μL multi-channel pipettor. The plate was sealed well with aluminum plate seal, and protein and compound were allowed to react for a desired amount of time. 5 μL of 2% formic acid (Fisher cat#A117) in de-ionized H2O was then added to each well followed by mixing with a pipette to quench the reaction. The plate was then resealed with aluminum seal and stored frozen on dry ice until analyzed as described below.
The above described assays were analyzed by mass spectrometry according to one of the following two procedures:
The MS instrument was set to positive polarity, 2 GHz resolution, and low mass (1700) mode and allowed to equilibrate for 30 minutes. The instrument was then calibrated, switched to acquisition mode and the appropriate method loaded.
After another 30 minute equilibration time, a blank batch (i.e., buffer) was run to ensure equipment is operating properly. The samples were thawed at 37° C. for 10 minutes, briefly centrifuged, and transfered to the bench top. Wells A1 and H12 were spiked with 1 μL 500 μM internal standard peptide, and the plates centrifuged at 2000×g for 5 minutes. The method was then run and masses of each individual well recorded.
The masses (for which integration data is desired) for each well were pasted into the platemap and exported from the analysis. Masses for the internal standards were exported as well. The data at 50 ppm was extracted for the +19 charge state, and identity of well A1 was assigned using the internal standard spike and integrated. Peak data was exported as a TOF list and the above steps were repeated individually, for the +20, +21, +22, +23, +24, and +25 charge states.
The masses and peak intensities of KRAS G12C protein species were measured using a Dionex RSLCnano system (Thermo Scientific) connected to a Q Exactive Plus mass spectrometer (Thermo Scientific).
20 μL of sample was loaded onto a Aeris™ 3.6 μm WIDEPORE C4 200 Å, LC Column 50×2.1 mm column maintained at 40° C. at a flow rate of 600 μL/min with 80% Solvent A (0.1% formic acid in H2O) and 20% Solvent B (0.1% formic acid in acetonitrile). The liquid chromatography conditions were 20% solvent B for 1 minute, 20% to 60% solvent B for 1.5 minutes, 60% to 90% solvent for 0.5 minute, 90% solvent B for 0.2 minute, 90% to 20% solvent B for 0.2 minute, and then equilibrated for 1.6 minute before the following sample injection. The flow rate was maintained at 600 μL/min throughout the sample analysis.
The mass spectrometer was operated in profile mode at a resolution of 17500, 5 microscans, using 50 msec max injection time and an AGC target of 1×10^6, and a full mass range from 800-1850 m/z was recorded. The intact protein mode was applied for optimal ion transfer and maximum sensitivity. The ionization method was electrospray ionization, which used a spray voltage of 4 kV, sheath gas flow set to 50 AU, auxiliary gas flow set to 10 AU and sweep gas flow set to 1 AU. […]
With Cc1ccc2[nH]ncc2c1-c1cccc(N2CCC3(CN(C(=O)/C=C/CN(C)C)C3)C2)c1C#N [Compound I-36, (E)-2-(2-(4-(dimethylamino)but-2-enoyl)-2,6-diazaspiro[3.4]octan-6-yl)-6-(5-methyl-1H-indazol-4-yl)benzonitrile] the Bind % was “+ (+ indicates binding activity greater than 0% and up to 50%)”.
For C=CC(=O)N1CC2(CCN(c3cc(N4CCC5(CCN(C)C5)C4)cc(-c4c(C)ccc5[nH]ncc45)c3C#N)C2)C1 (stereo not shown) [Compound I-41, 2-(2-acryloyl-2,6-diazaspiro[3.4]octan-6-yl)-6-(5-methyl-1H-indazol-4-yl)-4-(7-methyl-2,7-diazaspiro[4.4]nonan-2-yl)benzonitrile], the Bind % was “+++ (+++ indicates binding activity greater than 75%)”.
Cc1ccc2[nH]ncc2c1-c1c(F)ccc(N2CCC3(CN(C(=O)/C=C/CN(C)C)C3)C2)c1C#N [Compound I-46, (E)-6-(2-(4-(dimethylamino)but-2-enoyl)-2,6-diazaspiro[3.4]octan-6-yl)-3-fluoro-2-(5-methyl-1H-indazol-4-yl)benzonitrile] was tested, and the Bind % was “+ (+ indicates binding activity greater than 0% and up to 50%)”.
For Cc1ccc2cnn(C)c2c1-c1c(F)ccc(N2CCC3(CN(C(=O)/C=C/CN(C)C)C3)C2)c1C#N [Compound I-47, (E)-2-(1,6-dimethyl-1H-indazol-7-yl)-6-(2-(4-(dimethylamino)but-2-enoyl)-2,6-diazaspiro[3.4]octan-6-yl)-3-fluorobenzo-nitrile], the Bind % was “+ (+ indicates binding activity greater than 0% and up to 50%)”.
For C=CC(=O)N1CCC2(C1)CN(c1cc(OCc3ccccn3)cc(-c3c(C)ccc4[nH]ncc34)c1C#N)C2 [Compound I-48, 2-(6-acryloyl-2,6-diazaspiro[3.4]octan-2-yl)-6-(5-methyl-1H-indazol-4-yl)-4-(pyridin-2-ylmethoxy) benzonitrile], the Bind % was “+ (+ indicates binding activity greater than 0% and up to 50%)”.
With CC#CC(=O)N1CCC2(C1)CN(c1cc(OCc3ccccn3)cc(-c3c(C)ccc4[nH]ncc34)c1C#N)C2 [Compound I-49, 2-(6-(but-2-ynoyl)-2,6-diazaspiro[3.4]octan-2-yl)-6-(5-methyl-1H-indazol-4-yl)-4-(pyridin-2-ylmethoxy) benzonitrile] the Bind % was “+ (+ indicates binding activity greater than 0% and up to 50%)”.
With CC#CC(=O)N1CC2(CCN(c3cc(OCc4ccccn4)cc(-c4c(C)ccc5[nH]ncc45)c3C#N)CC2)C1 [Compound I-51, 2-(2-(but-2-ynoyl)-2,7-diazaspiro[3.5]nonan-7-yl)-6-(5-methyl-1H-indazol-4-yl)-4-(pyridin-2-ylmethoxy) benzonitrile] the Bind % was “+ (+ indicates binding activity greater than 0% and up to 50%)”.

Same assay, conditions: tested at a concentration of 8 μM
C=CC(=O)N1CC2(CCN(c3ccc(F)c(-c4c(C)ccc5[nH]ncc45)c3C#N)C2)C1 [Compound I-29, 6-(2-acryloyl-2,6-diazaspiro[3.4]octan-6-yl)-3-fluoro-2-(5-methyl-1H-indazol-4-yl)benzonitrile] was tested, and the Bind % was “+++ (+++ indicates binding activity greater than 75%)”.
In the case of C=CC(=O)N1CC2(CCN(c3cc(N4CCN(C)C(=O)C4)cc(-c4c(C)ccc5[nH]ncc45)c3C#N)C2)C1 [Compound I-30, 2-(2-acryloyl-2,6-diazaspiro[3.4]octan-6-yl)-6-(5-methyl-1H-indazol-4-yl)-4-(4-methyl-3-oxopiperazin-1-yl)benzonitrile], the Bind % is reported as “++ (++ indicates binding activity from 50 to 75%)”.
In the case of C=CC(=O)N1CC2(CCN(c3cc(N4CCCC(O)C4)cc(-c4c(C)ccc5[nH]ncc45)c3C#N)C2)C1 (stereo not shown) [Compound I-31, 2-(2-acryloyl-2,6-diazaspiro[3.4]octan-6-yl)-4-(3-hydroxypiperidin-1-yl)-6-(5-methyl-1H-indazol-4-yl)benzonitrile], the Bind % is reported as “+++ (+++ indicates binding activity greater than 75%)”.
C=CC(=O)N1CC2(CCN(c3cc(N4CCC(CN(C)C)CC4)cc(-c4c(C)ccc5[nH]ncc45)c3C#N)C2)C1 [Compound I-32, 2-(2-acryloyl-2,6-diazaspiro[3.4]octan-6-yl)-4-(4-((dimethylamino)methyl)piperidin-1-yl)-6-(5-methyl-1H-indazol-4-yl)benzonitrile] was tested, and the Bind % was “+++ (+++ indicates binding activity greater than 75%)”.
With C=CC(=O)N1CC2(CCN(c3cc(N4CCCC(N(C)C)C4)cc(-c4c(C)ccc5[nH]ncc45)c3C#N)C2)C1 (stereo not shown) [Compound I-33, 2-(2-acryloyl-2,6-diazaspiro[3.4]octan-6-yl)-4-(3-(dimethylamino)piperidin-1-yl)-6-(5-methyl-1H-indazol-4-yl)benzonitrile] the Bind % was “+++ (+++ indicates binding activity greater than 75%)”.
For Cc1ccc2[nH]ncc2c1-c1cc(N2CCOCC2)cc(N2CCC3(CN(C(=O)/C=C/CN(C)C)C3)C2)c1C#N [Compound I-34, (E)-2-(2-(4-(dimethylamino)but-2-enoyl)-2,6-diazaspiro[3.4]octan-6-yl)-6-(5-methyl-1H-indazol-4-yl)-4-morpholino-benzonitrile], the Bind % was “+ (+ indicates binding activity greater than 0% and up to 50%)”.
C=CC(=O)N1CC2(CCN(c3cc(OCCCN(C)C)cc(-c4c(C)ccc5cnn(C)c45)c3C#N)C2)C1 [Compound I-35, 2-(2-acryloyl-2,6-diazaspiro[3.4]octan-6-yl)-6-(1,6-dimethyl-1H-indazol-7-yl)-4-(3-(dimethylamino)propoxy) benzonitrile] was tested, and the Bind % was “++ (++ indicates binding activity from 50 to 75%)”.
C=CC(=O)N1CC2(CCN(c3ccc(OC)c(-c4c(C)ccc5[nH]ncc45)c3C#N)C2)C1 [Compound I-37, 6-(2-acryloyl-2,6-diazaspiro[3.4]octan-6-yl)-3-methoxy-2-(5-methyl-1H-indazol-4-yl)benzonitrile] was tested, and the Bind % was “+ (+ indicates binding activity greater than 0% and up to 50%)”.
For C=CC(=O)N1CC2(CCN(c3cc(N4CCC(N5CCN(C)[C@H](C)C5)CC4)cc(-c4c(C)ccc5[nH]ncc45)c3C#N)C2)C1 [Compound I-38, 2-(2-acryloyl-2,6-diazaspiro[3.4]octan-6-yl)-4-(4-((R)-3,4-dimethyl-piperazin-1-yl)piperidin-1-yl)-6-(5-methyl-1H-indazol-4-yl)benzonitrile], the Bind % was “+++ (+++ indicates binding activity greater than 75%)”.
In the case of C=CC(=O)N1CC2(CCN(c3cc(N4CCC(N5CCN(C)CC5)CC4)cc(-c4c(C)ccc5[nH]ncc45)c3C#N)C2)C1 [Compound I-39, 2-(2-acryloyl-2,6-diazaspiro[3.4]octan-6-yl)-6-(5-methyl-1H-indazol-4-yl)-4-(4-(4-methylpiperazin-1-yl)piperidin-1-yl)benzonitrile], the Bind % is reported as “+++ (+++ indicates binding activity greater than 75%)”.
For C=CC(=O)N1CC2(CCN(c3cc(OC[C@@H]4CCCN4C)cc(-c4c(C)ccc5cnn(C)c45)c3C#N)C2)C1 [Compound I-40, 2-(2-acryloyl-2,6-diazaspiro[3.4]octan-6-yl)-6-(1,6-dimethyl-1H-indazol-7-yl)-4-(((S)-1-methylpyrrolidin-2-yl)methoxy) benzonitrile], the Bind % was “+++ (+++ indicates binding activity greater than 75%)”.
In the case of C=CC(=O)N1CC2(CCN(c3cc(OCc4ccccn4)cc(-c4c(C)ccc5[nH]ncc45)c3C#N)CC2)C1 [Compound I-50, 2-(2-acryloyl-2,7-diazaspiro[3.5]nonan-7-yl)-6-(5-methyl-1H-indazol-4-yl)-4-(pyridin-2-ylmethoxy) benzonitrile], the Bind % is reported as “+ (+ indicates binding activity greater than 0% and up to 50%)”.
